Reference: ChEMBL document CHEMBL4602604, “A Selective and Brain Penetrant p38αMAPK Inhibitor Candidate for Neurologic and Neuropsychiatric Disorders That Attenuates Neuroinflammation and Cognitive Dysfunction” (J Med Chem, 2019)
Activity calls are given as the source filed them. No cut-off for these calls is given here.

Columns and labels:
[1] = human, microsomes, 1 µM
[2] = molecular target: Sodium-dependent dopamine transporter (Homo sapiens) (UniProt Q01959); experiment: Inhibition of human dopamine transporter at 10 uM
Sequence of Sodium-dependent dopamine transporter (Homo sapiens) (Q01959 whole entry): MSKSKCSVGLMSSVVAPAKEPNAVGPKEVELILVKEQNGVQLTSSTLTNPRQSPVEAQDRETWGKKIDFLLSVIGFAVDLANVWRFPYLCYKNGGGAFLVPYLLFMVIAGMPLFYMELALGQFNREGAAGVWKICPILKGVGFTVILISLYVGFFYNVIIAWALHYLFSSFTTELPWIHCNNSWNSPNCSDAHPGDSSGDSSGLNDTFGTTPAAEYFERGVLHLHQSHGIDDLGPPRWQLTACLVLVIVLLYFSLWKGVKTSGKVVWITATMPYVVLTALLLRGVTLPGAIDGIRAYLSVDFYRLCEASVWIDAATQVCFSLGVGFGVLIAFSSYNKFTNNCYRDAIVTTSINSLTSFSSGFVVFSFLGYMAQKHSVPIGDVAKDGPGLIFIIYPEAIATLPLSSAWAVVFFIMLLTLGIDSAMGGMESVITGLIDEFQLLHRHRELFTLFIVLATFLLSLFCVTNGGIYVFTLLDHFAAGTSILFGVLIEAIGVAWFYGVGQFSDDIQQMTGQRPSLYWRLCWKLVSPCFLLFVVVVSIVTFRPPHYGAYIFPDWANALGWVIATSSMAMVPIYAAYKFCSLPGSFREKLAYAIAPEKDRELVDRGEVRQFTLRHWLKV

[3] = test system: Mus musculus; experiment: Effect on memory function in C57Bl/6 mouse at 5 mg/kg, ip dosed 20 mins prior to start of testing by radial arm water maze test; assay type: ADME, organism-based; conditions: in vivo
[4] = molecular target: Histamine H1 receptor (Homo sapiens) (UniProt P35367); experiment: Inhibition of human histamine H1 receptor at 10 uM
Sequence of Histamine H1 receptor (Homo sapiens) (P35367 whole entry): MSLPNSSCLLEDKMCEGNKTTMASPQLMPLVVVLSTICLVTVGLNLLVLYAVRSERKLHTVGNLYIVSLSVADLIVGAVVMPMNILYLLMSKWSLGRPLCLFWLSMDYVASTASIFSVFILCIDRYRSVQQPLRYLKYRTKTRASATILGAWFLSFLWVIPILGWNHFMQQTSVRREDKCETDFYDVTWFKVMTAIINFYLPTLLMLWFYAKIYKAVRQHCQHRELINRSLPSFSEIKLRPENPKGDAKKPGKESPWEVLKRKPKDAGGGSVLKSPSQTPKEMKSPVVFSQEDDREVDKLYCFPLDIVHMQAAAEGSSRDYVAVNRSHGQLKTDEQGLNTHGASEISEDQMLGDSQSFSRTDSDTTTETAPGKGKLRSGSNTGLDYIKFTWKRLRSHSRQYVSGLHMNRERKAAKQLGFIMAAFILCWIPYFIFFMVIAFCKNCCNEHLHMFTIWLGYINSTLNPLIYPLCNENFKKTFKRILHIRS

[5] = test system: Mus musculus; experiment: Suppression of cognitive dysfunction in transgenic rTg4510 mouse model assessed as reduction in errors at […], po dosed every other day for 45 days by radial arm water maze test; assay type: functional, organism-based
[6] = molecular target: Cytochrome P450 2C8 (Homo sapiens, UniProt P10632); experiment: Inhibition of human recombinant CYP2C8 at 10 uM incubated for 10 to 30 mins in presence of CYP-specific probe DBF substrate by LC-MS/MS analysis; assay type: ADME; conditions: recombinant enzyme
[7] = test system: Mus musculus; experiment: Suppression of cognitive dysfunction in transgenic rTg4510 mouse model assessed as rescue of freezing deficit at […], po dosed every other day for 45 days by contextual fear conditioning assay; assay type: functional, organism-based
[8] = test system: Mus musculus; experiment: Suppression of cognitive dysfunction in transgenic rTg4510 mouse model assessed as prevention of hippocampal tissue loss at […], po dosed every other day for 45 days; assay type: functional, organism-based
[9] = molecular target: 5-hydroxytryptamine receptor 1B (Homo sapiens) (UniProt P28222); experiment: Inhibition of human 5HT1B receptor at 10 uM
Sequence of 5-hydroxytryptamine receptor 1B (Homo sapiens) (P28222 whole entry): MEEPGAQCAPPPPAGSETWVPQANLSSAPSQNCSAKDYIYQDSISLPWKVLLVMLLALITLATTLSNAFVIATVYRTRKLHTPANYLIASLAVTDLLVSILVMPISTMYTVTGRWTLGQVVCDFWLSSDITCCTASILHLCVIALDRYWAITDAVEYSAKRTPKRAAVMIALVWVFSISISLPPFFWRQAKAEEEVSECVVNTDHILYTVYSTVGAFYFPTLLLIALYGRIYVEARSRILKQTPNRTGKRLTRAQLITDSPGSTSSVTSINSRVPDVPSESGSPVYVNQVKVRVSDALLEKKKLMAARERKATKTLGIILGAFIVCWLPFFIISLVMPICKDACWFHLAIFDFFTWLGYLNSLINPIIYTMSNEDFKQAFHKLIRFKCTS

[10] = species on record: Rattus norvegicus; experiment: Inhibition of rat potassium channel at 10 uM
[11] = molecular target: 3',5'-cyclic-AMP phosphodiesterase 4D (Homo sapiens) (UniProt Q08499); experiment: Inhibition of human PDE4D2 at 10 uM
[12] = molecular target: 5-hydroxytryptamine receptor 3A (Homo sapiens) (UniProt P46098); experiment: Inhibition of human 5HT3 receptor at 10 uM
[13] = molecular target: Sodium-dependent noradrenaline transporter (Homo sapiens) (UniProt P23975); experiment: Inhibition of human norepinephrine transporter at 10 uM
[14] = molecular target: Amine oxidase [flavin-containing] B (Homo sapiens, UniProt P27338); experiment: Inhibition of human MAOB at 10 uM
[15] = molecular target: Cytochrome P450 2D6 (Homo sapiens, UniProt P10635); experiment: Inhibition of human recombinant CYP2D6 at 10 uM incubated for 10 to 30 mins in presence of CYP-specific probe MFC substrate by LC-MS/MS analysis; assay type: ADME; conditions: recombinant enzyme
[16] = molecular target: Prostaglandin G/H synthase 1 (Homo sapiens, UniProt P23219); experiment: Inhibition of human COX1 at 10 uM
[17] = molecular target: Cytochrome P450 2C19 (Homo sapiens, UniProt P33261); experiment: Inhibition of human recombinant CYP2C19 at 10 uM incubated for 10 to 30 mins in presence of CYP-specific probe CEC substrate by LC-MS/MS analysis; assay type: ADME; conditions: recombinant enzyme
Sequence of Cytochrome P450 2C19 (P33261 whole entry): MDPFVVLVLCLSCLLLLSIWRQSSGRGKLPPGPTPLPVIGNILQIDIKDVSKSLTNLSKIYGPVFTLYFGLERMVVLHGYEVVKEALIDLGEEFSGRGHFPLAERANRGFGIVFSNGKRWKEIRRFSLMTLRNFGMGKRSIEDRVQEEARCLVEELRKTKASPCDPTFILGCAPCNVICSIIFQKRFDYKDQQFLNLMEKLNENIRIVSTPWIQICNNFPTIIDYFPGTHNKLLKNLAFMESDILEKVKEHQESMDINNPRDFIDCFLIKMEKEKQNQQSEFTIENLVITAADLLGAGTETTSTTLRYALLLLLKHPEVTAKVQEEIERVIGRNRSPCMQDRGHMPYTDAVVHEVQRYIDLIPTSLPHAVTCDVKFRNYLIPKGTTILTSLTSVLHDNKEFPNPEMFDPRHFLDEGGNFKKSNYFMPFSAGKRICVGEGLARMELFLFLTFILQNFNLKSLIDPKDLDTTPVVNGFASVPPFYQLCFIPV

[18] = molecular target: Glutamate NMDA receptor (Rattus norvegicus) (UniProt P35439+Q00959+Q00960+Q00961+Q62645+Q8VHN2+Q9R1M7); experiment: Inhibition of rat NMDA receptor at 10 uM; assay type: protein-complex assay
[19] = molecular target: Cannabinoid receptor 2 (Homo sapiens) (UniProt P34972); experiment: Inhibition of human CB2 receptor at 10 uM
[20] = molecular target: Beta-1 adrenergic receptor (Homo sapiens) (UniProt P08588); experiment: Inhibition of human adrenergic beta1 receptor at 10 uM
[21] = Toxicity in APP/PS1 knock-in mouse assessed as induction of abnormalities in liver at 250 mg/kg; assay type: organism-based; conditions: in vivo
[22] = molecular target: Alpha-2A adrenergic receptor (Homo sapiens) (UniProt P08913); experiment: Inhibition of human adrenergic alpha2a receptor at 10 uM
[23] = molecular target: Mu-type opioid receptor (Homo sapiens) (UniProt P35372); experiment: Inhibition of human OP3 receptor at 10 uM
[24] = molecular target: Acetylcholinesterase (Homo sapiens, UniProt P22303); experiment: Inhibition of human acetyl cholinesterase at 10 uM
[25] = molecular target: Adenosine receptor A2a (Homo sapiens) (UniProt P29274); experiment: Inhibition of human adenosine A2A receptor at 10 uM
[26] = molecular target: Cytochrome P450 2B6 (Homo sapiens, UniProt P20813); experiment: Inhibition of human recombinant CYP2B6 at 10 uM incubated for 10 to 30 mins in presence of CYP-specific probe EFC substrate by LC-MS/MS analysis; assay type: ADME; conditions: recombinant enzyme
Sequence of Cytochrome P450 2B6 (P20813 whole entry): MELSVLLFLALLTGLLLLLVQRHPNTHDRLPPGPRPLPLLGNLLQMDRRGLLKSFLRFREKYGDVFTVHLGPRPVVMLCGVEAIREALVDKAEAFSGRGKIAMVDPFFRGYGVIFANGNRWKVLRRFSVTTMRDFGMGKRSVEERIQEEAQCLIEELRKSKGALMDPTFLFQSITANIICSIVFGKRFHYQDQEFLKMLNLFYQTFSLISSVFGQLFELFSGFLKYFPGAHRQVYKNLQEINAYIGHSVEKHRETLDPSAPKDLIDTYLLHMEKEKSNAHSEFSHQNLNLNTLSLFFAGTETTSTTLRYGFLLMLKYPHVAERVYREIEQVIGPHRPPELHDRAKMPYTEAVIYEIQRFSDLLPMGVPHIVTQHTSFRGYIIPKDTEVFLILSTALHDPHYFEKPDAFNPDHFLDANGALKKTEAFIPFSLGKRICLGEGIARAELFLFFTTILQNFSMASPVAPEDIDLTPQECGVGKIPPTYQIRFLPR

[27] = molecular target: Beta-2 adrenergic receptor (Homo sapiens) (UniProt P07550); experiment: Inhibition of human adrenergic beta2 receptor at 10 uM
Sequence of Beta-2 adrenergic receptor (Homo sapiens) (P07550 whole entry, looked up): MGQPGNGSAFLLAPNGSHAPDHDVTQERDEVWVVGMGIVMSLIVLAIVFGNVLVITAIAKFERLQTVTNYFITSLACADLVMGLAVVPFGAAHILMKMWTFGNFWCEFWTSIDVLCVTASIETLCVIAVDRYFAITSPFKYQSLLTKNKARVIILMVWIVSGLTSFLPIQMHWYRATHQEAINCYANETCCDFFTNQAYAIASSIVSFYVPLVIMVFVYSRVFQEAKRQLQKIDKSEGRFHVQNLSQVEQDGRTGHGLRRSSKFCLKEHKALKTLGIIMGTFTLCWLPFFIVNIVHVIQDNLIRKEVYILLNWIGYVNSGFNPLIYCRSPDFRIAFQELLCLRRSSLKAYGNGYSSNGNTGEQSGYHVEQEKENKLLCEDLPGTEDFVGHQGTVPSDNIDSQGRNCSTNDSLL

[28] = in vitro; conditions: human, hepatocytes
Description: Half life in human hepatocytes at 1 uM by LC-MS/MS analysis

[29] = molecular target: 5-hydroxytryptamine receptor 1A (Homo sapiens) (UniProt P08908); experiment: Inhibition of human 5HT1A receptor at 10 uM
[30] = molecular target: Histamine H2 receptor (Homo sapiens) (UniProt P25021); experiment: Inhibition of human histamine H2 receptor at 10 uM
[31] = molecular target: Amine oxidase [flavin-containing] A (Rattus norvegicus, UniProt P21396); experiment: Inhibition of rat MAOA at 10 uM
Sequence of Amine oxidase [flavin-containing] A (P21396 whole entry): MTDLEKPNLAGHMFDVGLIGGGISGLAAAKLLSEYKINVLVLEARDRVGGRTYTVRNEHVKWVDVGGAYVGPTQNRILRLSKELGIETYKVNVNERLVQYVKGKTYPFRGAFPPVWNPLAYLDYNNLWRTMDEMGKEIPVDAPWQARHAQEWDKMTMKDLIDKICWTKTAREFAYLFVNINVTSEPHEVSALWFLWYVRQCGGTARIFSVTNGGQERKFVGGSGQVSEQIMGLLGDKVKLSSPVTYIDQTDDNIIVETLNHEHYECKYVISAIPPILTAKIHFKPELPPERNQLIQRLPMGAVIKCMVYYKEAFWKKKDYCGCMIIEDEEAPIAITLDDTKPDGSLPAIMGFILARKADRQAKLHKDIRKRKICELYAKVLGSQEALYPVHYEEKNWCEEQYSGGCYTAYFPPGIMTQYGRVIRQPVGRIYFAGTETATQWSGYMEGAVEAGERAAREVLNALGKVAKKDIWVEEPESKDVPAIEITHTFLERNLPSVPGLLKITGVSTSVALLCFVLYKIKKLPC

[32] = molecular target: GABA-A receptor; anion channel (Rattus norvegicus) (UniProt O09028+P15431+P18506+P18508+P19969+P20236+P23574+P23576+P28471+P28473+P30191+P62813+P63079+P63138+Q91ZM7+Q9ES14); experiment: Inhibition of rat GABAA receptor at 10 uM; assay type: protein-complex assay
[33] = molecular target: Glucocorticoid receptor (Homo sapiens) (UniProt P04150); experiment: Inhibition of human glucocorticoid receptor at 10 uM
[34] = molecular target: Vasopressin V1a receptor (Homo sapiens) (UniProt P37288); experiment: Inhibition of human V1A receptor at 10 uM
[35] = test system: Mus musculus; experiment: Suppression of human recombinant tau-induced memory impairment in C57Bl/6 mouse model of oligomeric tau infusion model assessed as attenuation of deficits in spatial and associative memory performance at 5 mg/kg, ip dosed 20 mins prior to start of testing by radial arm water maze test; assay type: functional, organism-based
[36] = molecular target: 5-hydroxytryptamine receptor 2B (Homo sapiens) (UniProt P41595); experiment: Inhibition of human 5HT2B receptor at 10 uM
[37] = molecular target: Cholecystokinin receptor type A (Homo sapiens) (UniProt P32238); experiment: Inhibition of human CCK1 receptor at 10 uM
[38] = molecular target: Cytochrome P450 2C9 (Homo sapiens, UniProt P11712); experiment: Inhibition of human recombinant CYP2C9 at 10 uM incubated for 10 to 30 mins in presence of CYP-specific probe MFC substrate by LC-MS/MS analysis; assay type: ADME; conditions: recombinant enzyme
[39] = molecular target: Androgen receptor (Homo sapiens) (UniProt P10275); experiment: Inhibition of human androgen receptor at 10 uM
[40] = molecular target: Sodium-dependent serotonin transporter (Homo sapiens) (UniProt P31645); experiment: Inhibition of human serotonin transporter at 10 uM
[41] = molecular target: Cannabinoid receptor 1 (Homo sapiens) (UniProt P21554); experiment: Inhibition of human CB1 receptor at 10 uM
Sequence of Cannabinoid receptor 1 (Homo sapiens) (P21554 whole entry): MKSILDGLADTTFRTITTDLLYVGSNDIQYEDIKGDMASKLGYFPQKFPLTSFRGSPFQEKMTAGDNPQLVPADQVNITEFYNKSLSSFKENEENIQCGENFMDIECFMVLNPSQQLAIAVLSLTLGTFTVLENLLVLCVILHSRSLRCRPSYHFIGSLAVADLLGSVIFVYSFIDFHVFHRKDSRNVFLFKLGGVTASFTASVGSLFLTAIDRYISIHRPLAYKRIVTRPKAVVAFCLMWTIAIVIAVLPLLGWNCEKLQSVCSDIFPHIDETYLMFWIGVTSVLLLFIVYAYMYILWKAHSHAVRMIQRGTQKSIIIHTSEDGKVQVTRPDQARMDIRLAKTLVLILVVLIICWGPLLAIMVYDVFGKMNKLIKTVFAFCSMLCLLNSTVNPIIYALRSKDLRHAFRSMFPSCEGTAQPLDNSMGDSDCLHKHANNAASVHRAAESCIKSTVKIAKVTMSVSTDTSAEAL

[42] = molecular target: T1, Cytochrome P450 3A4 (Homo sapiens, UniProt P08684); experiment: Inhibition of human recombinant CYP3A4 at 10 uM incubated for 10 to 30 mins in presence of CYP-specific probe BFC substrate by LC-MS/MS analysis; assay type: ADME; conditions: recombinant enzyme
T1 sequence (P08684 whole entry): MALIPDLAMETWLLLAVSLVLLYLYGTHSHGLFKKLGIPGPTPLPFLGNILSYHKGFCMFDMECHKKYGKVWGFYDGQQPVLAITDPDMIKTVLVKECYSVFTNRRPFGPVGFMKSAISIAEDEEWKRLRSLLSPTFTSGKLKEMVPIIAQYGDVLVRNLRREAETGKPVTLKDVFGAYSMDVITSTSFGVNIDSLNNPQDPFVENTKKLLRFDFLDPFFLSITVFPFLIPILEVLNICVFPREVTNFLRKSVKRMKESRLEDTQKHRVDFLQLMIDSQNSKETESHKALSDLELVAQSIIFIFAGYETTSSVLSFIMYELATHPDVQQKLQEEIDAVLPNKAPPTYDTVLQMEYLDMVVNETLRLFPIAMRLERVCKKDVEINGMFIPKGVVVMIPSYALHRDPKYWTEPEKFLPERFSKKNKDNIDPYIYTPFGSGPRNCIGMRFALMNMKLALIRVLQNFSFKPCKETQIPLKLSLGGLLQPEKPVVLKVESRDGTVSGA

[43] = molecular target: Neuronal acetylcholine receptor; alpha4/beta2 (Homo sapiens) (UniProt P17787+P43681); experiment: Inhibition of human alpha4beta2 nAChR receptor at 10 uM; assay type: protein-complex assay
[44] = in vivo; conditions: mouse, po
Description: Toxicity in orally dosed wild type mouse dosed daily for 14 days

[45] = molecular target: Prostaglandin G/H synthase 2 (Homo sapiens, UniProt P35354); experiment: Inhibition of human COX2 at 10 uM
[46] = molecular target: D(2) dopamine receptor (Homo sapiens) (UniProt P14416); experiment: Inhibition of human D2S receptor at 10 uM
[47] = molecular target: cGMP-inhibited 3',5'-cyclic phosphodiesterase 3A (Homo sapiens, UniProt Q14432); experiment: Inhibition of human PDE3A at 10 uM
[48] = molecular target: T1, Cytochrome P450 3A4; experiment: Inhibition of human recombinant CYP3A4 at 10 uM incubated for 10 to 30 mins in presence of CYP-specific probe BzRes substrate by LC-MS/MS analysis; assay type: ADME; conditions: recombinant enzyme
[49] = molecular target: Cytochrome P450 1A2 (Homo sapiens, UniProt P05177); experiment: Inhibition of human recombinant CYP1A2 at 10 uM incubated for 10 to 30 mins in presence of CYP-specific probe CEC substrate by LC-MS/MS analysis; assay type: ADME; conditions: recombinant enzyme
[50] = molecular target: Muscarinic acetylcholine receptor M1 (Homo sapiens) (UniProt P11229); experiment: Inhibition of human muscarinic M1 receptor at 10 uM
Sequence of Muscarinic acetylcholine receptor M1 (Homo sapiens) (P11229 whole entry): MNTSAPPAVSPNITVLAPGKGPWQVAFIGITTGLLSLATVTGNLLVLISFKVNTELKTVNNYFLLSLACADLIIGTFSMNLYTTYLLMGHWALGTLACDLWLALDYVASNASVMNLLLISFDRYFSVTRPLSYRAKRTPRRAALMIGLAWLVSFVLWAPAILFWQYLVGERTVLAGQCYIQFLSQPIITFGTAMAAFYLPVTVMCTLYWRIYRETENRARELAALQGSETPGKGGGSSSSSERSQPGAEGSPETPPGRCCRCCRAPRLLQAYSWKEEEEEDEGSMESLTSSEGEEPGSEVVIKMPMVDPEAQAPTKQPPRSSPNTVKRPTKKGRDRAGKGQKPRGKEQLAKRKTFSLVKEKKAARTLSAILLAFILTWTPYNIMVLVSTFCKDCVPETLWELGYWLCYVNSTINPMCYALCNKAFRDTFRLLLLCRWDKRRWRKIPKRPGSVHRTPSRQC

[51] = molecular target: Muscarinic acetylcholine receptor M3 (Homo sapiens) (UniProt P20309); experiment: Inhibition of human muscarinic M3 receptor at 10 uM
[52] = molecular target: Delta-type opioid receptor (Homo sapiens) (UniProt P41143); experiment: Inhibition of human OP1 receptor at 10 uM
[53] = molecular target: Alpha-1A adrenergic receptor (Homo sapiens) (UniProt P35348); experiment: Inhibition of human adrenergic alpha1a receptor at 10 uM
[54] = Permeability in MDCK cells expressing BCRP at 5 uM by LC-MS/MS analysis; assay type: ADME, cell-based, Canis lupus familiaris; conditions: dog
[55] = Toxicity in wild type mouse assessed as induction of abnormalities in liver at 250 mg/kg; assay type: organism-based; conditions: in vivo
[56] = in vitro; conditions: Beagle, dog, hepatocytes
Description: Half life in Beagle dog hepatocytes at 1 uM by LC-MS/MS analysis

[57] = Permeability in human Caco2 cells at 5 uM by LC-MS/MS analysis; assay type: ADME, cell-based; conditions: caco-2, 5 µM
[58] = molecular target: 5-hydroxytryptamine receptor 2A (Homo sapiens) (UniProt P28223); experiment: Inhibition of human 5HT2A receptor at 10 uM
[59] = species on record: Rattus norvegicus; experiment: Inhibition of rat sodium sodium channel at 10 uM
[60] = molecular target: D(1A) dopamine receptor (Homo sapiens) (UniProt P21728); experiment: Inhibition of human DRD1 receptor at 10 uM
[61] = test system: Mus musculus; experiment: Suppression of cognitive dysfunction in transgenic rTg4510 mouse model assessed as prevention of cortical tissue loss at […], po dosed every other day for 45 days; assay type: functional, organism-based
[62] = test system: Mus musculus; experiment: Suppression of human recombinant tau-induced memory impairment in C57Bl/6 mouse model of oligomeric tau infusion model assessed as attenuation of deficits in spatial and associative memory performance at 5 mg/kg, ip dosed 20 mins prior to start of testing by contextual fear conditioning assay; assay type: functional, organism-based
[63] = molecular target: Kappa-type opioid receptor (Homo sapiens) (UniProt P41145); experiment: Inhibition of human OP2 receptor at 10 uM
[64] = molecular target: Voltage-gated L-type calcium channel (Rattus norvegicus, UniProt P22002+Q02485+P27732); experiment: Inhibition of rat L-type calcium channel at 10 uM; assay type: protein assay

## c1ccc2cc(-c3nnc(N4CCCCC4)cc3-c3ccncc3)ccc2c1
[1]
  t1/2: 6 min

## c1ccc2cc(-c3nnc(N4CCNCC4)cc3-c3ccncc3)ccc2c1
[1]
  t1/2: > 60 min

## CN1CCN(c2cc(-c3ccncc3)c(-c3ccc4ccccc4c3)nn2)CC1 [MW-150]
[2]
  inhibition: inactive
[3]
  Activity: Non-Toxic
[4]
  inhibition: inactive
[5]
  Activity: Active
[6]
  inhibition (INH): Not Active
[7]
  Activity: Active
[8]
  Activity: inactive
[9]
  inhibition: inactive
[10]
  inhibition: inactive
[11]
  inhibition: inactive
[12]
  inhibition: inactive
[13]
  inhibition: inactive
[14]
  inhibition (INH): Not Active
[15]
  inhibition (INH): Not Active
[16]
  inhibition (INH): Not Active
[17]
  inhibition (INH): Not Active
[18]
  inhibition: inactive
[19]
  inhibition: inactive
[20]
  inhibition: inactive
[21]
  Activity: Non-Toxic
[22]
  inhibition: inactive
[23]
  inhibition: inactive
[24]
  inhibition (INH): Not Active
[25]
  inhibition: inactive
[26]
  inhibition (INH): Not Active
[27]
  inhibition: inactive
[28]
  half-life at 1 µM: > 120 min
[29]
  inhibition: inactive
[30]
  inhibition: inactive
[31]
  inhibition (INH): Not Active
[32]
  inhibition: inactive
[33]
  inhibition: inactive
[34]
  inhibition: inactive
[35]
  Activity: Active
[36]
  inhibition: inactive
[37]
  inhibition: inactive
[38]
  inhibition (INH): Not Active
[39]
  inhibition: inactive
[40]
  inhibition: inactive
[41]
  inhibition: inactive
[42]
  inhibition (INH): Not Active
[43]
  inhibition: inactive
[44]
  NOAEL at 336 h: 125 mg/kg
[45]
  inhibition (INH): Not Active
[46]
  inhibition: inactive
[47]
  inhibition (INH): Not Active
[48]
  inhibition (INH): Not Active
[49]
  inhibition (INH): Not Active
[50]
  inhibition: inactive
[51]
  inhibition: inactive
[52]
  inhibition: inactive
[53]
  inhibition: inactive
[54]
  permeability: Permeable
[55]
  Activity: Non-Toxic
[56]
  half-life at 1 µM: > 120 min
[57]
  permeability: Permeable
[58]
  inhibition: inactive
[59]
  inhibition: inactive
[60]
  inhibition: inactive
[61]
  Activity: Active
[62]
  Activity: Active
[63]
  inhibition: inactive
[64]
  inhibition (INH): Not Active
